Each structure is given as a SMILES string.

For test [1], the target named is Leucine-rich repeat serine/threonine-protein kinase 2 (Homo sapiens, UniProt Q5S007). The test is described as follows: Cellular assay monitoring dephosphorylation of pSer935 LRRK2.
Test [2] addresses 5-hydroxytryptamine receptor 7 (Homo sapiens) (UniProt P34969). The conditions noted are these: Compound concentration 10.0 uM.
Test [3] has as its target Insulin-like growth factor 1 receptor (Homo sapiens) (UniProt P08069). The test is described as follows: IGF1R Kinase screen. The following applies: Compound concentration 1.0 uM.
The target in test [4] is Serine/threonine-protein kinase 25 (Homo sapiens) (UniProt O00506). The test is described as follows: STK25 (YSK1) Kinase screen. The conditions noted are these: Compound concentration 1.0 uM.
Sequence of Serine/threonine-protein kinase 25 (Homo sapiens) (O00506 whole entry, looked up): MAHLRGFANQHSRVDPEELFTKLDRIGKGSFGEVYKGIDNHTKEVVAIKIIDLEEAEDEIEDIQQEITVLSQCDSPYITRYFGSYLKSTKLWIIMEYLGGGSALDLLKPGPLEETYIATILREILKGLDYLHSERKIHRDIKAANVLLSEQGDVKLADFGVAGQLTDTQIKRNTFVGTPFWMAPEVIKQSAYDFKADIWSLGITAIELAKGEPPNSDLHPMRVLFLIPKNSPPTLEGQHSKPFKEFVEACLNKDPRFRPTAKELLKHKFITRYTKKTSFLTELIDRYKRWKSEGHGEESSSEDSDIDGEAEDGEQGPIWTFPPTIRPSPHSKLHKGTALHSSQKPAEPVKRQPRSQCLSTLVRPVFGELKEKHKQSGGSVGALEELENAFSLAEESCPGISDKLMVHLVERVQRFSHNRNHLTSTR
The target in test [5] is Tyrosine-protein kinase Fer (Homo sapiens) (UniProt P16591). The test is described as follows: FER Kinase screen. The conditions noted are these: Compound concentration 1.0 uM.
Test [6] deals with T1, Mitogen-activated protein kinase 13 (Homo sapiens) (UniProt O15264).
T1 sequence (whole entry): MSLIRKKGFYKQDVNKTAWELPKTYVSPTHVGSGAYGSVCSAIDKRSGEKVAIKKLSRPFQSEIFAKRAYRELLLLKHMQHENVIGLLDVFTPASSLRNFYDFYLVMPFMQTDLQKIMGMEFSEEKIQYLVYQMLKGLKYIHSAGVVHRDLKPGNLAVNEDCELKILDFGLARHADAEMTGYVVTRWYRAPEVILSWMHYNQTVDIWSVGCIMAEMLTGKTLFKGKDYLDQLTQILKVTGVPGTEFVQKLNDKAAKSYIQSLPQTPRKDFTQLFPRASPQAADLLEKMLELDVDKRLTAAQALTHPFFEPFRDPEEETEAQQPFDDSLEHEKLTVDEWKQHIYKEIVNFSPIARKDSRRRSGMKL
Kind of test: MAPK13 (p38 delta) Kinase screen. The conditions noted are these: Compound concentration 1.0 uM.

Test [7] has as its target Death-associated protein kinase 1 (Homo sapiens) (UniProt P53355). Kind of test: DAPK1 Kinase screen. The following applies: Compound concentration 1.0 uM.
Test [8] addresses T2, Mitogen-activated protein kinase kinase kinase 7 (Homo sapiens) (UniProt O43318).
T2 sequence (whole entry): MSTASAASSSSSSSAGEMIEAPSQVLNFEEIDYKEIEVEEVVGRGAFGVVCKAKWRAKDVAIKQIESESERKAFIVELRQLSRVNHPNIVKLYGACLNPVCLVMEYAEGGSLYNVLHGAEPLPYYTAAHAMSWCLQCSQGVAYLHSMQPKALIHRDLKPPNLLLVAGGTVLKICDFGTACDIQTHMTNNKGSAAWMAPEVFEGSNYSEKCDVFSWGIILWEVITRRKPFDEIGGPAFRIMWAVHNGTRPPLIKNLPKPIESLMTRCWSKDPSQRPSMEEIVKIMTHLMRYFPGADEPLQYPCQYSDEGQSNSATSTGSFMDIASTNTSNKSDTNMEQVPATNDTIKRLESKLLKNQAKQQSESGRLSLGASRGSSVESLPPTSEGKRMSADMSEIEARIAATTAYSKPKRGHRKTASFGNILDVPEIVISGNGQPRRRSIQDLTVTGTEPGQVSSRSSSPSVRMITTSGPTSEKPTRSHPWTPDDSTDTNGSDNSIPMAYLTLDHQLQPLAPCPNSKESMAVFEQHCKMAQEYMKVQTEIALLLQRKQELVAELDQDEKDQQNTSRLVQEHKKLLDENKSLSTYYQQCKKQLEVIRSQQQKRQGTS
Kind of test: MAP3K7/MAP3K7IP1 (TAK1-TAB1) Kinase screen. The conditions noted are these: Compound concentration 1.0 uM.

The target in test [9] is T3, Megakaryocyte-associated tyrosine-protein kinase (Homo sapiens) (UniProt P42679).
T3 sequence (whole entry): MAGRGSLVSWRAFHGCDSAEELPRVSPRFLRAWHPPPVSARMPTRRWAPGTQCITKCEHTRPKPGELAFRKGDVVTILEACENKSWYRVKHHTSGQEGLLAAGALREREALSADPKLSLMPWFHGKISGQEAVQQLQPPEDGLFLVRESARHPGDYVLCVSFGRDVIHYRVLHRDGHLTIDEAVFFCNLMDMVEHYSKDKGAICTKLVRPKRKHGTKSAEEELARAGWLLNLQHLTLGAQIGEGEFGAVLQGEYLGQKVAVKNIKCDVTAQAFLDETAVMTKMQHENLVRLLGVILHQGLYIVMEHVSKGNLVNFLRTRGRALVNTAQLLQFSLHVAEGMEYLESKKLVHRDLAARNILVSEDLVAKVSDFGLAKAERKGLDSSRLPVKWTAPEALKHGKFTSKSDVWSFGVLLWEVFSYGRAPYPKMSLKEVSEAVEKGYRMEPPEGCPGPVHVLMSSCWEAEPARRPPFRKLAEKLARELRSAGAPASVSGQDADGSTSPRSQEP
Kind of test: MATK (HYL) Kinase screen. The conditions noted are these: Compound concentration 1.0 uM.

Test [10] deals with T4, Protein kinase C iota type (Homo sapiens) (UniProt P41743).
T4 sequence (whole entry): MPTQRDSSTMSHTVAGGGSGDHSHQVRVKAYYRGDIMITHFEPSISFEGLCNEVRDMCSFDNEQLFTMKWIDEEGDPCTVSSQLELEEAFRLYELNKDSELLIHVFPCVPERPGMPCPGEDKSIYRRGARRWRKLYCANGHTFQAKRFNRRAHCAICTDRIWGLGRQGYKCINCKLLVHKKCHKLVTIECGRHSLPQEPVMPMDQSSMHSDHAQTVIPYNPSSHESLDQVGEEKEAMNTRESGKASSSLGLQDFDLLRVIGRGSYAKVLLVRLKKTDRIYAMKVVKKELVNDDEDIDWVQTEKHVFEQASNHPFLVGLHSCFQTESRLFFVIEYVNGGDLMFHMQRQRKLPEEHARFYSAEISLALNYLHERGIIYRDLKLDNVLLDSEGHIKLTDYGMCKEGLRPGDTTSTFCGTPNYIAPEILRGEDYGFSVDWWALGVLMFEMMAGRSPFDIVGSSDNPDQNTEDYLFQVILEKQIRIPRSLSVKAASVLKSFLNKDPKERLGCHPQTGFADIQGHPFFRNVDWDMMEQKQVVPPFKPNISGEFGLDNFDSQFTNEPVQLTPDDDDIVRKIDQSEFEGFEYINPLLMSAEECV
Kind of test: PRKCI (PKC iota) Kinase screen. The conditions noted are these: Compound concentration 1.0 uM.

Test [11] concerns the target Casein kinase II subunit alpha (Homo sapiens) (UniProt P68400). Kind of test: CSNK2A1 (CK2 alpha 1) Kinase screen. The conditions noted are these: Compound concentration 1.0 uM.
Test [12] addresses Mitogen-activated protein kinase 11 (Homo sapiens) (UniProt Q15759). Kind of test: MAPK11 (p38 beta) Kinase screen. The conditions noted are these: Compound concentration 1.0 uM.
The target of test [13] is Melanocortin receptor 4 (Homo sapiens) (UniProt P32245). The test is described as follows: Inhibition of Melanocortin MC4 at 10 µM in the Eurofins-Panlabs radioligand binding assay (Eurofins_assay_251350). More on the design: ligand concentration 0.02 nM. The following applies: Compound concentration 10.0 uM.
In test [14] the test system is Tyrosine-protein kinase ABL1 (Homo sapiens), P00519 [E255K]. The test is described as follows: ABL1 E255K Kinase screen. The following applies: Compound concentration 1.0 uM.
Sequence of Tyrosine-protein kinase ABL1 (Homo sapiens), P00519 [E255K] (P00519 whole entry E255K): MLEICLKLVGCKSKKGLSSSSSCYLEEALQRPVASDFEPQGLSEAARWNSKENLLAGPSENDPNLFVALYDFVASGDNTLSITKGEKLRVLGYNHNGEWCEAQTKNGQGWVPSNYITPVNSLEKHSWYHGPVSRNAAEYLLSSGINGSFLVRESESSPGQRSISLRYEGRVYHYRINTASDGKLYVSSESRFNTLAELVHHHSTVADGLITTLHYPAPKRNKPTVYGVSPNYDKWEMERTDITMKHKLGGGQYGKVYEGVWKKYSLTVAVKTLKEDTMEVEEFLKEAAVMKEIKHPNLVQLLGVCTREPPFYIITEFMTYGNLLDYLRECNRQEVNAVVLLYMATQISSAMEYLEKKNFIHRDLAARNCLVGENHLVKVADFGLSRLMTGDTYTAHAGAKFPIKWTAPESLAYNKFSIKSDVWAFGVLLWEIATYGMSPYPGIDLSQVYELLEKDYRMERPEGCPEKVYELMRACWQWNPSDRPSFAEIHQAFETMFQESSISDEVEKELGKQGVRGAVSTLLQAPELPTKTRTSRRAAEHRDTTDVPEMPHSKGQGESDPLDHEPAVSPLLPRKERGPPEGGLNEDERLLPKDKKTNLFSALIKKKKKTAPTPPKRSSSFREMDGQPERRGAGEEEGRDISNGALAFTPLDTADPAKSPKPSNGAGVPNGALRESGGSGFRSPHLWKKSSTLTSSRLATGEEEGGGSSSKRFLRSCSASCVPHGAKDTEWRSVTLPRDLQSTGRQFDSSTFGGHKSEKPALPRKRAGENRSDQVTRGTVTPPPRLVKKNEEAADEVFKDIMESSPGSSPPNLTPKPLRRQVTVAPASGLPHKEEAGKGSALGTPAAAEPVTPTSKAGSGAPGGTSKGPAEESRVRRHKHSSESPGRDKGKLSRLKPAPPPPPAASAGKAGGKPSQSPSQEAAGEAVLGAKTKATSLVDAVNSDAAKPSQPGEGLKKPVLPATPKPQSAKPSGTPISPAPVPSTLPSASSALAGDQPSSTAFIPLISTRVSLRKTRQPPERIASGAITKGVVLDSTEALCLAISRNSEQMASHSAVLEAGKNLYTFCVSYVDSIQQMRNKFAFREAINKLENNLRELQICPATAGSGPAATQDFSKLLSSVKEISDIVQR
Test [15] deals with Testis-specific serine/threonine-protein kinase 2 (Homo sapiens) (UniProt Q96PF2). The test is described as follows: STK22B (TSSK2) Kinase screen. The conditions noted are these: Compound concentration 1.0 uM.
Sequence of Testis-specific serine/threonine-protein kinase 2 (Homo sapiens) (Q96PF2 whole entry): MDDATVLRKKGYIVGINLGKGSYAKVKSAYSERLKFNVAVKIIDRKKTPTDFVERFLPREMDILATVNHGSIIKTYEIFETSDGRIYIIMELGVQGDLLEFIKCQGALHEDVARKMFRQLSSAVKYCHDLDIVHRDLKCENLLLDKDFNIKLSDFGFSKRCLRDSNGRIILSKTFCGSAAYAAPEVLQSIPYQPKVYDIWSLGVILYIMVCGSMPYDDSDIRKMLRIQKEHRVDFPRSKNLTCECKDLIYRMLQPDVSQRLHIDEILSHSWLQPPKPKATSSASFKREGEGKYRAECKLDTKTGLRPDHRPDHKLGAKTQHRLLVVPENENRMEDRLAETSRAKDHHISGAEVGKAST
For test [16], the target named is Serine/threonine-protein kinase PAK 2 (Homo sapiens) (UniProt Q13177). The test is described as follows: PAK2 (PAK65) Kinase screen. The following applies: Compound concentration 1.0 uM.
The target of test [17] is Calcium/calmodulin-dependent protein kinase type 1 (Homo sapiens) (UniProt Q14012). Kind of test: CAMK1 (CaMK1) Kinase screen. The conditions noted are these: Compound concentration 1.0 uM.
Test [18] concerns the target Serine/threonine-protein kinase PLK1 (Homo sapiens) (UniProt P53350). The test is described as follows: PLK1 Kinase screen. The following applies: Compound concentration 1.0 uM.

Sequence of Death-associated protein kinase 1 (Homo sapiens) (P53355 whole entry, looked up): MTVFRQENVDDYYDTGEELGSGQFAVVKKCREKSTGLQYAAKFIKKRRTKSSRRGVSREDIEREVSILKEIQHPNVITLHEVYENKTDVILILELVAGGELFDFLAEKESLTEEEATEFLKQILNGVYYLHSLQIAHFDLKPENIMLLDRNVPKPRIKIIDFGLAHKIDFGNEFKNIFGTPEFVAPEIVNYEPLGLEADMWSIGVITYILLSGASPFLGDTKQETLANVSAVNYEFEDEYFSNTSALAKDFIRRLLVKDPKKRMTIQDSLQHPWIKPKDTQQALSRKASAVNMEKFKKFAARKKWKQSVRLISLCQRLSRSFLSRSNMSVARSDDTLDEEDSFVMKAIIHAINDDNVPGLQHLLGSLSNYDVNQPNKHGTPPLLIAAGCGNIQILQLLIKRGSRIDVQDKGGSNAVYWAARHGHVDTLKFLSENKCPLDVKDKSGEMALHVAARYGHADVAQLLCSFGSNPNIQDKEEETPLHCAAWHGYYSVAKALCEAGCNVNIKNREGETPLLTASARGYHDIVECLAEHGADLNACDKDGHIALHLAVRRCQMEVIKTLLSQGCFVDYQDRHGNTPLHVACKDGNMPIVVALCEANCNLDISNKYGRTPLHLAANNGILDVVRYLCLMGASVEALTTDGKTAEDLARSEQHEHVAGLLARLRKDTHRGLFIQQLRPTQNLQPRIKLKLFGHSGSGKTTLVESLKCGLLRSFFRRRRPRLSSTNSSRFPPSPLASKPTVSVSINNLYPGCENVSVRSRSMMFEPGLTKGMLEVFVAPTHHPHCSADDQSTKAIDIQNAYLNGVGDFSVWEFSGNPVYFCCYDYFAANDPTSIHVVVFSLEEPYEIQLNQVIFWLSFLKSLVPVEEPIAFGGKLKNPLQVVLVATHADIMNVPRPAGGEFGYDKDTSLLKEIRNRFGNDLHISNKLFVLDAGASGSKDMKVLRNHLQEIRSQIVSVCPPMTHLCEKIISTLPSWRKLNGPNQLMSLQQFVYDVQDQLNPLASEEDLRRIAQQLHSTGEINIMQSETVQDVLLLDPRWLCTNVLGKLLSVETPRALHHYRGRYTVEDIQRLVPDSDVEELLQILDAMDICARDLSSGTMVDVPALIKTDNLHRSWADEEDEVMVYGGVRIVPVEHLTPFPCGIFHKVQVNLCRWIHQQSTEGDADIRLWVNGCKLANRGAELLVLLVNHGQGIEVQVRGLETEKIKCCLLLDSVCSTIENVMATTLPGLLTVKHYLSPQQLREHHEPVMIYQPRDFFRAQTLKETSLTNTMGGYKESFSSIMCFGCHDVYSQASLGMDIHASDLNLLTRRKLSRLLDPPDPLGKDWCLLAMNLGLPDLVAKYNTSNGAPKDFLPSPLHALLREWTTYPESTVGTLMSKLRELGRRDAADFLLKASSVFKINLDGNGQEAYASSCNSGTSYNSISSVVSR
Sequence of Insulin-like growth factor 1 receptor (Homo sapiens) (P08069 31-736 limits assumed): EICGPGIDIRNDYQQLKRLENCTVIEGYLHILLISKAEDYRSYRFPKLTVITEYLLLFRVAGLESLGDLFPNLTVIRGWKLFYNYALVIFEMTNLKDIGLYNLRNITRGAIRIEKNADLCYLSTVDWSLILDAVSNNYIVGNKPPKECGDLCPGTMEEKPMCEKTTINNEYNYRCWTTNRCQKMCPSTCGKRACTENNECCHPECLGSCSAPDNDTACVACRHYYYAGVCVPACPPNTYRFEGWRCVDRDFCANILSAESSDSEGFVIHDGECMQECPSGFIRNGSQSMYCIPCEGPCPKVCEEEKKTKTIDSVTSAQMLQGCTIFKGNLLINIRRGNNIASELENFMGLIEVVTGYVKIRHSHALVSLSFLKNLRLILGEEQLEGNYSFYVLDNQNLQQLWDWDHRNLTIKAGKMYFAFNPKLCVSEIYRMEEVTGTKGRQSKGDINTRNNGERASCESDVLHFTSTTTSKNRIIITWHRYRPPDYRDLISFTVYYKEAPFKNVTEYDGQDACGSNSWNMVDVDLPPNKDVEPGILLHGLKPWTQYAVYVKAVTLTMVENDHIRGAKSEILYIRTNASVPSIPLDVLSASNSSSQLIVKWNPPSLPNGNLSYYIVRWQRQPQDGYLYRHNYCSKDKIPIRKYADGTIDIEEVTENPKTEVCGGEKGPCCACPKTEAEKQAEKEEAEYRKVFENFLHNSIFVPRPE
Sequence of Insulin-like growth factor 1 receptor (Homo sapiens) (P08069 741-1367 limits assumed): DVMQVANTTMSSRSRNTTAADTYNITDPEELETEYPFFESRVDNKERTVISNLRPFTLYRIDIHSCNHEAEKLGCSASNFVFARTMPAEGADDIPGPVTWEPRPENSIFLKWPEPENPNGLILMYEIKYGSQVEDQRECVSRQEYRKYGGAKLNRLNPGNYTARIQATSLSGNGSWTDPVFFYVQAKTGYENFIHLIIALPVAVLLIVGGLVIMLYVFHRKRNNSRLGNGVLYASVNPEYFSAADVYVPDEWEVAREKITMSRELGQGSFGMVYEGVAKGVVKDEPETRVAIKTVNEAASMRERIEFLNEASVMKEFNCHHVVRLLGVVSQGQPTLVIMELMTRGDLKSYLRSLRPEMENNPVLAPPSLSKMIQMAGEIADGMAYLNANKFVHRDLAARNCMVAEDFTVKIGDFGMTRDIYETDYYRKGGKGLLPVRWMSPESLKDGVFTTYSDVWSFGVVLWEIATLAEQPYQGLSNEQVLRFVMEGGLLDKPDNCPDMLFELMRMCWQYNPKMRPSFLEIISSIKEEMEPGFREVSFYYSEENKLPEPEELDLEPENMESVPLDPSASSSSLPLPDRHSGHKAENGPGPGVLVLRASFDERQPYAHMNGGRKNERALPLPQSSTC
Sequence of Casein kinase II subunit alpha (Homo sapiens) (P68400 whole entry, looked up): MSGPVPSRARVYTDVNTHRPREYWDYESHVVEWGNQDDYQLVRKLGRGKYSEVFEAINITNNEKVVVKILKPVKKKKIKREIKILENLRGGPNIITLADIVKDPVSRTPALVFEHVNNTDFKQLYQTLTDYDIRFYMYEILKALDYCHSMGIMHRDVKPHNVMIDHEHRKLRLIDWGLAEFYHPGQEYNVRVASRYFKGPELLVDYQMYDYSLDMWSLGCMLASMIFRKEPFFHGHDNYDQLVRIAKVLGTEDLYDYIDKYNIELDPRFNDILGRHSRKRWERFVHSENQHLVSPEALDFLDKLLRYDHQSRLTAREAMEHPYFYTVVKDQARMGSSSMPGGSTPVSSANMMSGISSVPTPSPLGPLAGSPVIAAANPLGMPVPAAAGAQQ

With `C[C@@H]1CN(c2cc(-c3nn(C)c4ccc(OC5(C)CC5)cc34)ncn2)C[C@H](C)O1` [MLi-2-NC], the concentration for half-maximal inhibition (IC50) in [1] is 5.44 µM (not active). In test [2], the inhibition was -0.4%.

For `C[C@@H]1CN(c2cc(-c3n[nH]c4ccc(OC5(C)CC5)cc34)ncn2)C[C@H](C)O1` [MLi-2], the inhibition in [3] is 1.96%; in test [4], 2.24%; in test [5], 26.7%; in test [6], 4.25%; in test [7], -0.645%; in test [8] it was -4.42%. Further, the inhibition in test [9] is 3.28%; in test [10], -0.512%; in test [11] it was 3.5%; in test [12], 13%; in [13], -6%; in test [14], 4.43%. Also, the inhibition in test [15] was 10.2%; in test [16], 8.73%; in [17] it was -4.05%; in test [18], 7.54%.

In general, IC50 refers to the midpoint of a concentration-inhibition curve. Higher therefore signals weaker potency. A word on the inhibition: it is the change of the read-out against control, counted positive when it falls.
